Key:
[1] = Effect of urine on Eu3+-3,4,3-LI(1,2-HOPO) emission / stability in urine; type: physicochemical
Experimental: Urine is a complex matrix comprised of salts and metabolism by-products, which can potentially affect assay response. […] Although the average pH of human urine is 6.0, there is a strong variation among individuals.^37 Therefore, the following in vitro experiments are performed with urine at 50% dilution with […] buffer (50 mM, pH 6.0) to fix the acidity of the solution, preventing potential variations in the assay response due to sample pH, and 10 min incubation times, which had been optimized in preliminary experiments.
2 μL 3,4,3-LI(1,2-HOPO) (1 mM) and EuCl3 (1 mM) are added to a water solution, mixed for 10 s, and left to incubate at room temperature, without stirring, for 10 min. The absorption spectrum (from 250 to 425 nm) and luminescence spectrum (from 500 to 750 nm under 315 nm excitation) are recorded with a SpectraMax iD3 Multi-Mode Microplate Reader (Molecular Devices, Sunnyvale, Calif.).

[2] = Selectivity of the Eu3+-3,4,3-LI(1,2-HOPO) probe: optical response to Gd3+ and interfering cations; type: physicochemical; conditions: 50 μM cation; emission at 620 nm, 315 nm excitation
Experimental: The optical response (FIG. 2b) of the Eu^3+-3,4,3-LI(1,2-HOPO) complex to Gd^3+ ions and several potential interfering cations is examined.
2 μL 3,4,3-LI(1,2-HOPO) (1 mM) are added to various solutions containing 50 μM of Gd^3+, Na^+, K^+, Ca^2+ or Mg^2+, mixed for 10 s, and left to incubate at room temperature, without stirring for 10 min. 2 μL EuCl3 (1 mM) are added to the solutions, mixed for 10 s, and left undisturbed for 10 min before recording emission spectra from 500 to 700 nm, under 315 nm excitation with a SpectraMax iD3 Multi-Mode Microplate Reader.

[3] = Detection of GBCA in synthetic human urine by luminescence quenching assay; conditions: GBCA increased up to 150 μM; 50% synthetic human urine, 50 mM MES pH 6.0
Experimental: In this assay, 3,4,3-LI(1,2-HOPO) is added to the urine sample and, in the absence of GBCAs, 1,2-HOPO groups remain available to complex other metal species. Eu^3+ is then added, and its emission is sensitized (FIG. 3). In the presence of GBCAs, however, 1,2-HOPO units acquire the Gd^3+ from the contrast agent because of their higher affinity for the metal compared to clinical ligands,^23 preventing the coordination of subsequently added Eu^3+. Thus, a drastic emission quenching is induced in presence of GBCAs.
Surine™ samples containing different amounts of GBCA are diluted down to 50% with MES solution (final concentration 50 mM, pH 6.0). 2 μL 3,4,3-LI(1,2-HOPO) (1 mM) are added to each solution, mixed for 10 s, and left to incubate at room temperature, without stirring for 10 min. 2 μL EuCl3 (1 mM) are added, mixed for 10 s and left undisturbed for 10 min before recording emission spectra from 500 to 700 nm under 315 nm excitation with a SpectraMax iD3 Multi-Mode Microplate Reader.
The limit of detection is calculated as: […]
Where ILOD is the assay response intensity at the limit of detection, Iblank is the response intensity of the blank, and σblank is the standard deviation for the blank signal.

[4] = Quantification of GBCAs in mouse urine by ICP-OES; type: in vivo, Swiss Webster mice; conditions: urine collected 2 h after i.v. injection, 0.3 mmol/kg
Experimental: (§1) Finally, the luminescence assay by quantifying GBCAs in mouse urine samples is validated. The three GBCAs are intravenously injected (four mice per group), and urine is collected 2 h after injection, as mice excrete the contrast agents more quickly than humans do.^41 Due to the different composition between mouse and human urine,^42 calibration curves (FIG. 7) are performed by spiking GBCA standards into urine from control mice rather than into synthetic human urine. Table 4 reports the assay response to the mouse urine samples, and Table 3 compares the GBCA concentrations quantified by the assay versus inductively coupled plasma optical emission spectrometry (ICP-OES), which is one of the gold standard techniques for gadolinium quantification.^43 The assay provided values that are very similar to those of ICP-OES, with only slightly higher standard deviations.
The protocol used in the animal studies is reviewed and approved by the Institutional Animal Care and Use Committee of Lawrence Berkeley National Laboratory, and is performed in AAALAC-accredited facilities according to prescribed guidelines and regulations. The animals are young adult (78 days old) female (33.0±1.4 g) Swiss Webster mice (Simonsen Laboratories, Gilroy, Calif., USA). Mice are kept under a 12 h light cycle with controlled temperature (21-24° C.) and relative humidity (30-70%), and are given water and food ad libitum. Each group is housed together in a plastic stock cage lined with a 0.5 cm layer of highly absorbent low-ash pelleted cellulose bedding (ALPHA-dri). […]
To quantify the concentrations of the GBCA in mouse urine by ICP-OES, 50 μL of commercial stock solutions are digested in 100 μL of nitric acid (70%) and 100 μL of hydrogen chloride (6 N) for 3 h at 60 ° C. and re-dispersed in 4.75 mL of Milli-Q water. The final concentration of gadolinium in solution is quantified on a Perkin Elmer 5300 DV optical emission ICP with auto sampler at the Inductively Coupled Plasma Spectroscopy Facility of the University of California, Berkeley. […]

[5] = Quantification of GBCAs in mouse urine by luminescence assay; type: in vivo, Swiss Webster mice; conditions: for [GBCA] in assay solution: mouse urine 2 h after injection, diluted in MES buffer; for [GBCA] in original sample: mouse urine collected 2 h after injection; for GBCA concentration in mouse urine, Luminescence assay: urine collected 2 h after i.v. injection, 0.3 mmol/kg
Experimental: as §1
The protocol used in the animal studies is reviewed and approved by the Institutional Animal Care and Use Committee of Lawrence Berkeley National Laboratory, and is performed in AAALAC-accredited facilities according to prescribed guidelines and regulations. The animals are young adult (78 days old) female (33.0±1.4 g) Swiss Webster mice (Simonsen Laboratories, Gilroy, Calif., USA). Mice are kept under a 12 h light cycle with controlled temperature (21-24° C.) and relative humidity (30-70%), and are given water and food ad libitum. Each group is housed together in a plastic stock cage lined with a 0.5 cm layer of highly absorbent low-ash pelleted cellulose bedding (ALPHA-dri). Groups of four mice are injected intravenously into a warmed lateral tail vein with a single dose of GBCA (0.3 mmol/kg mouse) or bacteriostatic […] sodium chloride solution (control group), and urine is collected after 2 h through bladder massage method. Finally, euthanasia is performed under isotiurane anesthesia.
Because the GBCA concentration in mouse urine is very high at early excretion times, the samples are diluted in buffer as described: 1 μL mouse urine samples are mixed with […] MES solutions (final concentration 50 mM, pH 6.0). 4 μL 3,4,3-LI(1,2-HOPO) (1 mM) are added to each solution, mixed for 10 s, and left to incubate at room temperature, without stirring for 10 min. 4 μL EuCl3 (1 mM) are added, mixed for 10 s and left undisturbed for 10 min before recording emission spectra from 500 to 700 nm under 315 nm excitation with a SpectraMax iD3 Multi-Mode Microplate Reader. For calibration curve preparation, GBCA standard solutions are spiked into urine of control mice. The resulting solutions are quantified as previously described in this paragraph.

| Molecule | GBCA concentration in mouse urine, ICP-OES [4] | [GBCA] in assay solution [5] | [GBCA] in original sample [5] | GBCA concentration in mouse urine, Luminescence assay [5] | further results |
| --- | --- | --- | --- | --- | --- |
| O=C(NCCCN(CCCCN(CCCNC(=O)c1cccc(=O)n1O)C(=O)c1cccc(=O)n1O)C(=O)c1cccc(=O)n1O)c1cccc(=O)n1O [3,4,3-LI(1,2-HOPO)] | – | – | – | – | stability in urine ([1]; urine): stable in urine |
| O.O.O.O.O.O.[Cl-].[Cl-].[Cl-].[Gd+3] [Gd^3+, gadolinium (III) chloride hexahydrate] | – | – | – | – | quenching of 20 μM Eu^3+-3,4,3-LI(1,2-HOPO) emission [2]: 71±1% |
| CNC[C@H](O)[C@@H](O)[C@H](O)[C@H](O)CO.CNC[C@H](O)[C@@H](O)[C@H](O)[C@H](O)CO.O=C([O-])CN(CCN(CC(=O)[O-])CC(=O)O)CCN(CC(=O)[O-])CC(=O)O.[Gd+3] [Magnevist, gadopentetate dimeglumine] | 0.018 ± 0.000 M | 101 ± 13 µM | 0.020 ± 0.005 M | 0.020 ± 0.005 M | decrease of luminescence of the assay solution [3]: 75±1% |
| CNC[C@H](O)[C@@H](O)[C@H](O)[C@H](O)CO.CNC[C@H](O)[C@@H](O)[C@H](O)[C@H](O)CO.O=C([O-])CN(CCN(CC(=O)[O-])CC(=O)O)CCN(CC(=O)O)C(COCc1ccccc1)C(=O)[O-].[Gd+3] (stereo not shown) [Multihance, gadobenate dimeglumine] | 0.015 ± 0.000 M | 86 ± 9 µM | 0.017 ± 0.004 M | 0.017 ± 0.004 M | – |
| CNC(=O)CN(CCN(CCN(CC(=O)[O-])CC(=O)NC)CC(=O)[O-])CC(=O)[O-].[Gd+3] [Omnsican, gadodiamide] | 0.024 ± 0.000 M | 101 ± 3 µM | 0.020 ± 0.001 M | 0.020 ± 0.001 M | – |
| Eu^3+-3,4,3-LI(1,2-HOPO) | – | – | – | – | effect of urine on emission ([1]; 20 μM, 0 to 100% artificial human urine (Surine), 315 nm excitation): not affected by urine |
